Active and inactive are the calls of the source. The calls are words filed in the database; no cut-off is given here. Numbered stars: 1 amine (or outer) side, 2 acyl side, 3 side chain; on linkers, the order of the positions; unused ones are H or OH. Square brackets hold non-standard residues; d marks the D form. Peptide text beside a SMILES is read from it. ξ: configuration not given here. X1 = O=C([C@H]1CCC[C@@H]1N[*:1])[*:2]; X2 = O=C([C@H]1CNC[C@@H]1N[*:1])[*:2]; ξβ3hL = CC(C)CC(N)CC(=O)O; ξβ3hK = NCCCCC(N)CC(=O)O; ξβ3hT = CC(O)C(N)CC(=O)O; ξβ3hV = CC(C)C(N)CC(=O)O; βAla = NCCC(=O)O
Key:
Mus musculus [1] = experiment: Stimulation of Treg cells function in C57BL/6 mouse splenocytes assessed as suppression of anti-CD3-stimulated effector T cell proliferation pretreated ip daily for 5 days followed by splenocytes isolation and co-culture with untreated splenocytes at 1:1 ratio; type: functional, organism-based
Mus musculus [2] = experiment: Stimulation of Treg cells function in C57BL/6 mouse splenocytes assessed as suppression of anti-CD3-stimulated CD4+/CD25- naive T cells proliferation at 300 ug, ip pretreated daily for 5 days followed by splenocytes isolation and co-culture with CD4+/CD25- naive T cells; type: functional, organism-based
Mus musculus [3] = experiment: (§1) Anti-parkinson's activity in MPTP-induced C57BL/6 mouse model of Parkinson's disease receiving adaptive transfer of splenocytes from 15 ug/day/5 days, ip compound treated donor mouse assessed as TH-positive neurons survival rate in substantia nigra at 15 ug/day, ip for 5 days measured on day 7 post MPTP intoxication by FJ-C staining based assay relative to control; type: functional
Mus musculus [4] = experiment: as §1, with “nigra” for “nigra at 15 ug/day, ip for 5 days”, “(reference value: 24.5%)” for “relative to control”; type: functional
Dipeptidyl peptidase 4 = Dipeptidyl peptidase 4 (Homo sapiens, UniProt P27487); experiment: Stability of the compound assessed as DPP4 (unknown origin)-mediated compound hydrolysis at 250 uM by HPLC analysis; type: ADME
Chain of Dipeptidyl peptidase 4 (P27487 whole entry): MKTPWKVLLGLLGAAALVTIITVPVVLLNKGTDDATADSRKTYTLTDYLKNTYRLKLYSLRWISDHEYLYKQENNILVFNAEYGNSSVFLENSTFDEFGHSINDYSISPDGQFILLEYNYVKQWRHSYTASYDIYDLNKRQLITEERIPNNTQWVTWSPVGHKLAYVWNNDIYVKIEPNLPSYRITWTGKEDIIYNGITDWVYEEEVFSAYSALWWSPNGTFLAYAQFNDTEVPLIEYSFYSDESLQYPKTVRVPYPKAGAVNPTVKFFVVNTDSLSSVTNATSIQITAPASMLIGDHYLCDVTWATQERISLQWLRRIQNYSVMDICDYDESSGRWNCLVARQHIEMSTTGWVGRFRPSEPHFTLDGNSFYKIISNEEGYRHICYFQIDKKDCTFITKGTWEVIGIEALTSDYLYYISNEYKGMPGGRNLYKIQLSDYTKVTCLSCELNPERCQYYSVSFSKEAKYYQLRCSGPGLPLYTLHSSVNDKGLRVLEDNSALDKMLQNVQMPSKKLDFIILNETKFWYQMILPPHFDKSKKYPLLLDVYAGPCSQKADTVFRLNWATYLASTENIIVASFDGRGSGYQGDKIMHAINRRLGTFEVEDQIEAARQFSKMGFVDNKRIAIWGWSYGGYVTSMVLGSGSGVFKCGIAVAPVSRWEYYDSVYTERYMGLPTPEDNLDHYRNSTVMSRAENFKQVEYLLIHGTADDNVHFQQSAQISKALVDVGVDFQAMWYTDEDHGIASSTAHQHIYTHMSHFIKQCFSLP

Proteinase K = Proteinase K (Engyodontium album, UniProt P06873); experiment: Stability of the compound assessed as Tritirachium album proteinase K-mediated compound hydrolysis at 250 uM by HPLC analysis; type: ADME; details: parengyodontium album
Chain of Proteinase K (P06873 whole entry): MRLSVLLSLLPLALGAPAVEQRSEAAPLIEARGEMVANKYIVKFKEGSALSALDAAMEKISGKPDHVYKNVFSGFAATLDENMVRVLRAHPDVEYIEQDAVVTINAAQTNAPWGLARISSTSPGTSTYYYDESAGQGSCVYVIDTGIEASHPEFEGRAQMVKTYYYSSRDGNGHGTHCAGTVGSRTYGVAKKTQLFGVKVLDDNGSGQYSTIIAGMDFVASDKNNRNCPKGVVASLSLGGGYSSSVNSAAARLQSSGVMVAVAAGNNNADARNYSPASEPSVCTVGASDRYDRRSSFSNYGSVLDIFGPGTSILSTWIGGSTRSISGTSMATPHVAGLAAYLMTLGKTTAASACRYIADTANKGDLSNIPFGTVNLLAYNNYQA

Chymotrypsin = Chymotrypsin (Homo sapiens, UniProt Q99895+P17538+P40313+Q6GPI1); experiment: Stability of the compound assessed as chymotrypsin (unknown origin)-mediated compound hydrolysis at 250 uM by HPLC analysis; type: ADME
[5] = target: T1, Vasoactive intestinal polypeptide receptor 2 (Homo sapiens, UniProt P41587); experiment: Agonist activity at human VIPR2 expressed in CHOK1 cells assessed as intracellular cAMP accumulation after 60 mins by PathHunter assay; type: functional, cell-based
T1 sequence (P41587 whole entry): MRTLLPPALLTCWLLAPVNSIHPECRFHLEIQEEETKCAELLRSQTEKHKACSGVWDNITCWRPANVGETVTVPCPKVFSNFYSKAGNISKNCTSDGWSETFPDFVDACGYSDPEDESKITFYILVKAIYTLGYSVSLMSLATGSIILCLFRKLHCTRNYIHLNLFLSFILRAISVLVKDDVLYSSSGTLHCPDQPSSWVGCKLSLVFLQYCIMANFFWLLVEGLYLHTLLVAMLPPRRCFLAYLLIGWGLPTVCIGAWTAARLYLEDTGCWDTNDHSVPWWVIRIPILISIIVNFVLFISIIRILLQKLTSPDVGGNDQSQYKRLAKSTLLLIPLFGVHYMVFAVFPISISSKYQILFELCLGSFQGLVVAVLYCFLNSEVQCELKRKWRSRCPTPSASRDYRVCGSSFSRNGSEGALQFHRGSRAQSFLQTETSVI

[6] = target: T2, Vasoactive intestinal polypeptide receptor 1 (Homo sapiens, UniProt P32241); experiment: Agonist activity at human VIPR1 expressed in CHOK1 cells assessed as intracellular cAMP accumulation after 60 mins by PathHunter assay; type: functional, cell-based
T2 sequence (P32241 whole entry): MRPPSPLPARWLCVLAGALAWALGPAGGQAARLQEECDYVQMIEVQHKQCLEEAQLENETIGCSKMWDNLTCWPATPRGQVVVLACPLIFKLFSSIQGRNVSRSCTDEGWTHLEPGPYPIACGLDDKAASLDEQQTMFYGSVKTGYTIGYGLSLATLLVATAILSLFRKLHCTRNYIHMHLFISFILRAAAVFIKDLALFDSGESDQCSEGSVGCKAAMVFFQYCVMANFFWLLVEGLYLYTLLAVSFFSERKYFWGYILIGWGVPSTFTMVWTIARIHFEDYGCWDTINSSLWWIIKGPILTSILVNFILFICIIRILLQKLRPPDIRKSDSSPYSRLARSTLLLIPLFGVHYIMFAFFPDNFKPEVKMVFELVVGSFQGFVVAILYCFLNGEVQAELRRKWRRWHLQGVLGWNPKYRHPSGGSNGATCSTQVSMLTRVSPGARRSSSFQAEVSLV

[7] = target: T2, Vasoactive intestinal polypeptide receptor 1; experiment: Induction of VIPR1 receptor internalization in CHOK1 cells expressing human VIPR1 by beta-galactosidase reporter gene assay; type: functional, cell-based

Stability (Dipeptidyl peptidase 4) | Stability (Proteinase K) | Stability (Chymotrypsin) | EC50 [5] | EC50 [6] | EC50 [7] | SMILES | Activity (Mus musculus [1]) | Activity (Mus musculus [2]) | Survival (Mus musculus [3]) | Survival (Mus musculus [4])
– | – | – | – | – | – | CC[C@H](C)[C@H](NC(=O)C1CCCN1C(=O)[C@H](CCC(N)=O)NC(=O)[C@H](CC(C)C)NC(=O)[C@H](Cc1ccc(O)cc1)NC(=O)[C@H](CCCCN)NC(=O)[C@H](CCCCN)NC(=O)[C@H](C)NC(=O)C1CCCN1C(=O)[C@@H](NC(=O)[C@H](CCC(N)=O)NC(=O)C1CCCN1C(=O)[C@H](CCCNC(=N)N)NC(=O)[C@H](CC(C)C)NC(=O)[C@H](CCCNC(=N)N)NC(=O)[C@@H](NC(=O)[C@H](Cc1ccc(O)cc1)NC(=O)[C@H](CC(N)=O)NC(=O)[C@H](CC(=O)O)NC(=O)[C@@H](NC(=O)[C@H](Cc1ccccc1)NC(=O)[C@@H](NC(=O)[C@H](C)NC(=O)[C@H](CC(=O)O)NC(=O)[C@H](CO)NC(=O)[C@@H](N)Cc1cnc[nH]1)C(C)C)[C@@H](C)O)[C@@H](C)O)C(C)C)C(=O)N[C@@H](CCCCN)C(=O)N[C@@H](CC(N)=O)C(=O)N[C@@H](CCCCN)C(=O)N[C@@H](CCCNC(=N)N)C(=O)N[C@@H](Cc1ccc(O)cc1)C(=O)O (some centres undefined) | Dose-dependent effect | Active | 69.1% | 50.2%
Stable | Stable | Stable | – | – | – | CCCC[C@H](NC(=O)[C@H](CCC(N)=O)NC(=O)[C@H](CCCCN)NC(=O)[C@H](CCCNC(=N)N)NC(=O)[C@H](CC(C)C)NC(=O)[C@H](CCCCN)NC(=O)[C@@H](NC(=O)[C@H](Cc1ccc(O)cc1)NC(=O)[C@H](CC(N)=O)NC(=O)[C@H](CCC(=O)OC(=O)[C@H](C)NC(=O)[C@H](CC(=O)O)NC(=O)[C@H](CO)NC(=O)[C@H](Cc1c[nH]cn1)NC(C)=O)NC(=O)[C@@H](NC(=O)[C@H](Cc1ccccc1)NC(=O)[C@@H](N)C(C)C)[C@@H](C)O)[C@@H](C)O)C(=O)N[C@@H](C)C(=O)N[C@@H](C)C(=O)N[C@@H](CCCCN)C(=O)N[C@@H](CCCCN)C(=O)N[C@@H](Cc1ccc(O)cc1)C(=O)N[C@@H](CC(C)C)C(=O)N[C@@H](CC(N)=O)C(=O)NC(=O)[C@@H](NC(=O)CNC(=O)CNC(=O)[C@@H]1CCCCN[C@@H](CC(N)=O)C(=O)N[C@@H](CC(C)C)C(=O)N[C@@H](CCCCN)C(=O)N1)[C@@H](C)O | – | – | – | –
Stable | Stable | Stable | 0.646 nM | 133 nM | – | CC(=O)N[C@@H](Cc1cnc[nH]1)C(=O)N[C@H]1CCC[C@@H]1C(=O)N[C@@H](CC(=O)O)C(=O)N[C@@H](C)C(=O)N[C@H]1CCC[C@@H]1C(=O)N[C@@H](Cc1ccccc1)C(=O)N[C@H](C(=O)N[C@@H](CCC(=O)O)C(=O)N[C@@H](CC(N)=O)C(=O)N[C@@H](Cc1ccc(O)cc1)C(=O)N[C@H](C(=O)N[C@@H](CCCCN)C(=O)N[C@@H](CC(C)C)C(=O)N[C@@H](CCCNC(=N)N)C(=O)N[C@@H](CCCCN)C(=O)N[C@@H](CCC(N)=O)C(=O)N[C@@H](CC(C)C)C(=O)N[C@@H](C)C(=O)N[C@@H](C)C(=O)N[C@H]1CNC[C@@H]1C(=O)N[C@@H](CCCCN)C(=O)N[C@@H](Cc1ccc(O)cc1)C(=O)N[C@H]1CCC[C@@H]1C(=O)N[C@@H](CC(N)=O)C(=O)N[C@@H](CC(=O)O)C(=O)N[C@@H](CC(C)C)C(=O)NC(CCCCN)CC(=O)N[C@@H](CCCCN)C(=O)NCC(=O)NCCC(=O)N[C@H](C(=O)O)[C@@H](C)O)[C@@H](C)O)[C@@H](C)O (stereo partly drawn) (Ac-H[X1]DA[X1]FTENYTKLRKQLAA[X2]KY[X1]NDL[ξβ3hK]KG[βAla]T-OH) | – | – | – | –
– | – | – | – | 2.17 nM | 10.2 nM | CC[C@H](C)[C@H](NC(=O)[C@H](C)NC(=O)[C@H](CC(N)=O)NC(=O)CC(CC(C)C)NC(=O)[C@H](Cc1ccc(O)cc1)NC(=O)[C@H](CCCCN)NC(=O)[C@H](CCCCN)NC(=O)CC(NC(=O)[C@H](C)NC(=O)[C@H](CC(C)C)NC(=O)[C@H](CCC(N)=O)NC(=O)CC(CCCCN)NC(=O)[C@H](CCCNC(=N)N)NC(=O)[C@H](CC(C)C)NC(=O)[C@H](CCCNC(=N)N)NC(=O)CC(NC(=O)[C@H](Cc1ccc(O)cc1)NC(=O)[C@H](CC(N)=O)NC(=O)[C@H](CC(=O)O)NC(=O)[C@@H](NC(=O)[C@H](Cc1ccccc1)NC(=O)[C@@H](NC(=O)[C@H](C)NC(=O)[C@H](CC(=O)O)NC(=O)[C@H](CO)NC(=O)[C@@H](N)Cc1cnc[nH]1)C(C)C)[C@@H](C)O)C(C)O)C(C)C)C(=O)NC(CC(=O)N[C@@H](CC(N)=O)C(=O)O)CC(C)C (stereo partly drawn) (H-HSDAVFTDNY[ξβ3hT]RLR[ξβ3hK]QLA[ξβ3hV]KKY[ξβ3hL]NAI[ξβ3hL]N-OH) | – | – | – | –

— ChEMBL document CHEMBL4257221, “Peptides comprising non-natural amino acids and methods of making and using the same” (2016)
